According to patent US9492471B2, “Methods of treating a disease or disorder associated with Bruton'S Tyrosine Kinase” (Celgene Avilomics Research, Inc., priority 2013, dated 2016):
Read-outs that look alike come from different tables or passages of the source.

How the values were obtained:
Assay in all cases: HotSpot kinase profiling
Assay type in all cases: biochemical
[1] = molecular target: T1, STK32C/YANK3 (Homo sapiens, UniProt Q86UX6)
T1 construct: purchased Reaction Biology Corp
How it was run: (§1)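 Activity is measured by radiolabel transfer captured on P81 filters after a 2 h room-temperature reaction of kinase, substrate and cofactors. Values are percent inhibition against DMSO.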

[2] = molecular target: T2, PKAcb (Homo sapiens, UniProt P22694)
T2 construct: purchased Reaction Biology Corp
How it was run: as §1

[3] = molecular target: T3, LCK (Homo sapiens, UniProt P06239)
T3 construct: purchased Reaction Biology Corp
How it was run: as §1

[4] = molecular target: T4, JNK1 (Homo sapiens, UniProt P45983)
T4 construct: purchased Reaction Biology Corp
How it was run: as §1

[5] = molecular target: T5, PKCnu/PRKD3 (Homo sapiens, UniProt O94806)
T5 construct: purchased Reaction Biology Corp
T5 sequence (O94806 1-890): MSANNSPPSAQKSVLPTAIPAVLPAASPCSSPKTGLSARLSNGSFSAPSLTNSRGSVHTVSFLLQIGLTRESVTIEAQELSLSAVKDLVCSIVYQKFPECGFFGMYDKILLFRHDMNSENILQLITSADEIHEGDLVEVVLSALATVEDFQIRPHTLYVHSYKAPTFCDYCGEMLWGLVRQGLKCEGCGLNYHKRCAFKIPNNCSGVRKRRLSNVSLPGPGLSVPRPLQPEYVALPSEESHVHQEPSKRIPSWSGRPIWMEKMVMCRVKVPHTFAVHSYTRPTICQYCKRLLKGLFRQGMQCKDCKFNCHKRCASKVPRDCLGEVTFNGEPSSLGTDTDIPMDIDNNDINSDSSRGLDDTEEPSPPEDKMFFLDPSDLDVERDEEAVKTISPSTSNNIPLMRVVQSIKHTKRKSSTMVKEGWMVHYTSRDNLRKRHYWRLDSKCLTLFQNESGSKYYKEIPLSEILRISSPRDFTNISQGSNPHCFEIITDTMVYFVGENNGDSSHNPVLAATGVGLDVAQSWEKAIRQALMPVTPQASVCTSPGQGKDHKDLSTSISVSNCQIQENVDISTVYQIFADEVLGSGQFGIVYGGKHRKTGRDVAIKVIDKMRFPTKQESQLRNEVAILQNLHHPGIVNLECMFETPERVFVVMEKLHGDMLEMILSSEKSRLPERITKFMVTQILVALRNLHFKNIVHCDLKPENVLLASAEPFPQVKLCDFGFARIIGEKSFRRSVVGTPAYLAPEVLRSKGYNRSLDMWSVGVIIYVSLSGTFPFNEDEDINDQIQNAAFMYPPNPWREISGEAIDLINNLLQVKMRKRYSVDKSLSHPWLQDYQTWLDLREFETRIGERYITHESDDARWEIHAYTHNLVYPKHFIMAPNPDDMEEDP
How it was run: as §1

[6] = molecular target: T6, ULK1 (Homo sapiens, UniProt O75385)
T6 construct: purchased Reaction Biology Corp
T6 sequence (O75385 1-1050): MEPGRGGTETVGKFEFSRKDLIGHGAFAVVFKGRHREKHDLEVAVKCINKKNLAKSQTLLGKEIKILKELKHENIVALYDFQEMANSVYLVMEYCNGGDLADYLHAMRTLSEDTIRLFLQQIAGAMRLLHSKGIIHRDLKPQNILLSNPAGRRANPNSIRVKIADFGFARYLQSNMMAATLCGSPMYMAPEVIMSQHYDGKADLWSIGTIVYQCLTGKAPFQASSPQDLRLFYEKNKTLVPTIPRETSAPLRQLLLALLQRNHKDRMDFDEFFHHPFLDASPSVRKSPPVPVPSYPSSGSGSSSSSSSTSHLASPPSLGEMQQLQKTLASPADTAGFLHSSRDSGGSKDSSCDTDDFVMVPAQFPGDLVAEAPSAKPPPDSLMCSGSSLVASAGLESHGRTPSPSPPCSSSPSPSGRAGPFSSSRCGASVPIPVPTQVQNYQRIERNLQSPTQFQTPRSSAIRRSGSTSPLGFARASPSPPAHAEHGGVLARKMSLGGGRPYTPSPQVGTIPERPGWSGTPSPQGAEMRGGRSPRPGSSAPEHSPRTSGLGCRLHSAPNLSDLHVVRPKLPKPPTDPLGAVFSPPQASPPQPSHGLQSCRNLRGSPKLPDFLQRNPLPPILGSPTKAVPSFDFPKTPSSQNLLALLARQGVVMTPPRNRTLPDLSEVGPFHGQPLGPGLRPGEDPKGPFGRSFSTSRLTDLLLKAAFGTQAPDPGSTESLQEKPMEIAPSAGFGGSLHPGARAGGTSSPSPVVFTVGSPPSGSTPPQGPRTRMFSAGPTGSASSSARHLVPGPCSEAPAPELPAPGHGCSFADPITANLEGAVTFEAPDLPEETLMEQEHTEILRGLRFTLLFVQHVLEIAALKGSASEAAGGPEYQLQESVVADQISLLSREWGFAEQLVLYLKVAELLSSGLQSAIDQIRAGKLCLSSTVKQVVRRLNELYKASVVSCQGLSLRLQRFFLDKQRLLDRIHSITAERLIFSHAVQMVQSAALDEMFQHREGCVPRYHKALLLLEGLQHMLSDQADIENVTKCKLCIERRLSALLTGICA
How it was run: as §1

[7] = read-out: % Enzyme Activity (relative to DMSO controls) Run 1
[8] = read-out: % Enzyme Activity (relative to DMSO controls) Run 2

T1 sequence (Q86UX6 whole entry): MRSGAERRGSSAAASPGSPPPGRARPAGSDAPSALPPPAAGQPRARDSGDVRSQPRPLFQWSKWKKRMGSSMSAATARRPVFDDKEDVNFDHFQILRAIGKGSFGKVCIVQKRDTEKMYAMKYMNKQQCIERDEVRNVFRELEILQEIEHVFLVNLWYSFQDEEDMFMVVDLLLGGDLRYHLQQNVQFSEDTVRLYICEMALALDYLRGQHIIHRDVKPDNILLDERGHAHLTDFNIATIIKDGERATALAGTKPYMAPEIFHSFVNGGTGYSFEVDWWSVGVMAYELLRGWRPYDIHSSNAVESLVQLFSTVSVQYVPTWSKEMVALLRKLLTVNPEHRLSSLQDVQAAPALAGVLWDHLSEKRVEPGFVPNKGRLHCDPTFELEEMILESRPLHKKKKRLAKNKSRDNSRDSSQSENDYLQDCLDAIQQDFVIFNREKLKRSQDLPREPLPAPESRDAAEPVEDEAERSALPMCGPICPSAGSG
T3 sequence (P06239 whole entry): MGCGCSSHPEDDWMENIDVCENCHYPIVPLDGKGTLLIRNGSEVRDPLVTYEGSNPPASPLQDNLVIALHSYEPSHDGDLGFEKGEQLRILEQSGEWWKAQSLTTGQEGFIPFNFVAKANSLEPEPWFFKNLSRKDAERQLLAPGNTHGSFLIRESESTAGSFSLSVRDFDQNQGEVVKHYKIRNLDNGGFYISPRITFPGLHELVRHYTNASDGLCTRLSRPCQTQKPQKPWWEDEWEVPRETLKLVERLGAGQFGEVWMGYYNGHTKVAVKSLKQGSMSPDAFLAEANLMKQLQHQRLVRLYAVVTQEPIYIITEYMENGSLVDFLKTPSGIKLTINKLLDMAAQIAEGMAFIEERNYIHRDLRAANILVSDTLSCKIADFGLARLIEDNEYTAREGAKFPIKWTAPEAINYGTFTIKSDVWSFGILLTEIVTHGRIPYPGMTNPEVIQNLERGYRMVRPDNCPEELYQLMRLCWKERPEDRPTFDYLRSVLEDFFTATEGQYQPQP
T4 sequence (P45983 whole entry): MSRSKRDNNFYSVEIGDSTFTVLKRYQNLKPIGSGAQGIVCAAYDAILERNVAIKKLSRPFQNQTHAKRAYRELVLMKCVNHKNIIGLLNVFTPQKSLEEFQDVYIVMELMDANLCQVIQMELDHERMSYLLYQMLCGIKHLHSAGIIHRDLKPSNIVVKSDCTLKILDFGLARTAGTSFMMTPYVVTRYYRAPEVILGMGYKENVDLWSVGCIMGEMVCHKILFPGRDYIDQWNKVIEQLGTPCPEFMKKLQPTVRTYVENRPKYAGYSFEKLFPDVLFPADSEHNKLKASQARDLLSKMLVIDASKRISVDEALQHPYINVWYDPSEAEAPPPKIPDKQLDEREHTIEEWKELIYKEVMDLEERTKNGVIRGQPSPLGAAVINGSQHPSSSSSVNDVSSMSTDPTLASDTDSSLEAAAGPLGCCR

C=CC(=O)Nc1cccc(Nc2nc(Nc3ccc(OCCOC)c(F)c3)ncc2F)c1 [Compound 2]
inhibition at 3 µM [1]: -6.01%
remaining activity at 3 µM [1, 7]: 105%
remaining activity at 3 µM [1, 8]: 107%
inhibition at 3 µM [2]: 49.6%
remaining activity at 3 µM [2, 7]: 49.7%
remaining activity at 3 µM [2, 8]: 51.1%
inhibition at 3 µM [3]: 36%
remaining activity at 3 µM [3, 7]: 64.7%
remaining activity at 3 µM [3, 8]: 63.4%
inhibition at 3 µM [4]: 12.1%
remaining activity at 3 µM [4, 7]: 88.1%
remaining activity at 3 µM [4, 8]: 87.7%
inhibition at 3 µM [5]: 20.1%
remaining activity at 3 µM [5, 7]: 80.1%
remaining activity at 3 µM [5, 8]: 79.8%
inhibition at 3 µM [6]: -0.59%
remaining activity at 3 µM [6, 7]: 100%
remaining activity at 3 µM [6, 8]: 101%
